Measurements taken from patent US20230119013A1, “N-CYANOPYRROLIDINES WITH ACTIVITY AS USP30 INHIBITORS” (MISSION THERAPEUTICS LIMITED, priority 2020, published 2023).
Read-outs that look alike come from different tables or passages of the source.

What was measured:
[1] = tested on: Eurofins CEREP SafetyScreen44 panel; assay: Eurofins CEREP SafetyScreen44 panel profiling; format: binding; details: single concentration of 10 μM; for Example 2 all targets except 5-HT2b
Excerpt: Aside from selectivity over other DUB enzymes, it is important for a drug to have low affinity for other targets, and pharmacological profiling may be performed against panels of targets to assess the potential for, and to minimise, potential off-target effects. Examples of targets for which the compounds of the present invention may be screened against are those of the industry standard Eurofins-Cerep SafetyScreen44 panel, which includes 44 targets as a representative selection of GPCR receptors, transporters, ion channels, nuclear receptors, and kinase and non-kinase enzymes. Preferably, compounds of the invention have insignificant affinity against targets of this screening panel. Further examples of targets for which the compounds of the present invention may be screened against are kinases of the Thermo Fisher SelectScreen kinase profiling panel, which includes 39 targets as a representative selection of kinase enzymes. Preferably, compounds of the invention have insignificant affinity against targets of this screening panel. Additionally, examples of a particular enzyme class for which the compounds of the present invention may be screened against are the cathepsins (e.g. cathepsin A, B, C, H, K, L, L2, S, V and Z). Preferably, compounds of the invention have good selectivity for USP30 over one or more of these enzymes. […]

TK6 cells = assay: In vitro micronucleus assay in TK6 cells; format: cell-based; details: 27 hours recovery
Experimental: The micronucleus assay may be used to determine if a compound is genotoxic by evaluating the presence of micronuclei. Micronuclei may contain chromosome fragments produced from DNA breakage (clastogens) or whole chromosomes produced by disruption of the mitotic apparatus (aneugens).
Example 1 was assessed in the bacterial reverse mutation assay (Ames) and in vitro micronucleus assay. All in vitro tests were conducted with and without exogenous metabolic activation using concentrations up to those limited by cytotoxicity or insolubility.
Induction of chromosome damage was assessed using the in vitro micronucleus assay in TK6 cells. Example 1 was negative for induction of micronuclei when incubated for 3 hours in the presence of exogenous metabolic activation followed by 27 hours recovery, and also when incubated for 27 hours in the absence of exogenous metabolic activation followed by 27 hours recovery.

[2] = tested on: T1, UCHL1, USP1, USP2, USP6, USP9x, USP10, USP15, USP16, USP20, USP21, USP22, USP25, USP28, USP35, USP36, USP46/UAF1; assay: DUB biochemical IC50 assays (off-target panel); details: each of UCHL1, USP1, USP2, USP6, USP9x, USP10, USP15, USP16, USP20, USP21, USP22, USP25, USP28, USP35, USP36, USP46/UAF1; read-out: IC50 (μM) against DUB panel
T1 construct: other: each of UCHL1, USP1, USP2, USP6, USP9x, USP10, USP15, USP16, USP20, USP21, USP22, U

[3] = tested on: T2, UCHL1, USP1, USP2, USP6, USP9x, USP10, USP15, USP16, USP20, USP21, USP22, USP25, USP28, USP35, USP36, USP46/UAF1; assay: DUB biochemical IC50 assays (off-target panel); details: each of UCHL1, USP1, USP9x, USP10, USP15, USP16, USP20, USP21, USP22, USP25, USP28, USP35, USP36, USP46/UAF1; read-out: IC50 (μM) against DUB panel
T2 construct: other: each of UCHL1, USP1, USP9x, USP10, USP15, USP16, USP20, USP21, USP22, USP25, USP28

USP30 = target: T3, USP30 (Mus musculus, UniProt Q3UN04); assay: USP30 brain tissue target engagement assay (TE ex vivo); format: in vivo; details: 2 mg/kg iv, n = 2 avg
T3 construct: in either brain or kidney tissue samples from compound-dosed animals; from tissue; b325 calls 'TE ex vivo' a kidney tissue assay
Experimental: 50 to 100 mg of tissue was homogenised in 3× volume of lysis buffer (50 mM Tris-base, pH 7.5, 50 mM NaCl, 1% NP-40/Igepal CA-630, 2 mM MgCl2, 10% Glycerol, 5 mM beta-mercaptoethanol, cOmplete mini tablets EDTA free (Roche), PhosStop tablets (Roche)) using the Retch Mixer Mill (MM400). The lysates were cleared and protein quantified using the Bradford Protein assay (Pierce). Lysate containing 60 μg protein was incubated with a final conc of 24 μM of HA-Ahx-Ahx-Ub-VME probe for 60 mins at room temperature. The reaction was stopped by addition of 5×SDS sample loading buffer and proteins separated by SDS-PAGE and western blotting. USP30 was detected using an anti-USP30 Sheep S746D antibody (MRC PPU Reagents and Services) and a rabbit anti sheep secondary IgG (H+L) horseradish peroxidase conjugated (Thermo #31480) and visualised using ECL reagent (GE #RPN2109) on a GE LAS4000 imager. Target engagement was measured by quantitation of the bands corresponding to USP30 and USP30 bound to the Ub-VME probe and expression of this proportion compared to vehicle treated control.
MDR1-MDCK (Madin-Darby Canine Kidney cell monolayer) (in vitro) flux assay. Cell TE WB: USP30 endogenous cellular target engagement western blot (WB) assay. Assays the activity of compounds against USP30 in cells using an irreversible activity probe to monitor USP30 activity. […]

5-HT2b = target: T4, 5-HT2b (Homo sapiens, UniProt P41595); assay: Eurofins CEREP SafetyScreen44 panel, 5-HT2b; format: binding
T4 construct: purchased Eurofins CEREP (contract screening panel) SafetyScreen44
Excerpt: Example 2 was subject to pharmacological profiling in the Eurofins CEREP SafetyScreen44 panel.

T3 sequence (Q3UN04 whole entry): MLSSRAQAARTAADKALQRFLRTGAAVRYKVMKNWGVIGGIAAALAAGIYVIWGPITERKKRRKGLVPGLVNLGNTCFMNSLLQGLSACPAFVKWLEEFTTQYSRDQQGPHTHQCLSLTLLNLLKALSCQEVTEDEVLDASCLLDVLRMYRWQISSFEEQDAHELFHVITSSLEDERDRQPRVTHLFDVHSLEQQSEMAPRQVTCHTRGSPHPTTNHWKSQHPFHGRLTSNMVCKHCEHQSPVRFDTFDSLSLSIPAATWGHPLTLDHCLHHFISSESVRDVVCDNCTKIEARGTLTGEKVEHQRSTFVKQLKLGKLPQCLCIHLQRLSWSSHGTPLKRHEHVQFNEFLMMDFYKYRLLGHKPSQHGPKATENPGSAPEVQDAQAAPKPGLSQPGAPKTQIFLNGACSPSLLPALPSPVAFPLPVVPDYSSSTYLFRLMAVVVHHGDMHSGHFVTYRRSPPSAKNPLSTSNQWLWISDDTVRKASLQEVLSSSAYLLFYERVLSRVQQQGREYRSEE
T4 sequence (P41595 whole entry): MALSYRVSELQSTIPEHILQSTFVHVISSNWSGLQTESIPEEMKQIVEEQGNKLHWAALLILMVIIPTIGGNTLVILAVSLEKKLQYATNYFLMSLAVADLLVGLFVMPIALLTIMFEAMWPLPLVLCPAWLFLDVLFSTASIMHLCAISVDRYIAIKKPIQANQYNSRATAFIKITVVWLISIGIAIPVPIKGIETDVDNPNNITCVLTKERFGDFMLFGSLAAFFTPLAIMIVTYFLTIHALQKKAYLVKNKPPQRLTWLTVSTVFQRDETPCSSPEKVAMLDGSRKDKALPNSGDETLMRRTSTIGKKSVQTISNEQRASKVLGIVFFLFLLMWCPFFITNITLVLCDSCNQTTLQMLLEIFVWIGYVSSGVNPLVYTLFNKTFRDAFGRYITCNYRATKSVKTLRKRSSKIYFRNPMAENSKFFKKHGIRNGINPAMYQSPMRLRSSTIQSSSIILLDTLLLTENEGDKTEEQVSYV

Structure (SMILES)	inhibition of binding or enzyme activity against all targets in the panel [1]	induction of micronuclei (TK6 cells; 3 hours in the presence of exogenous metabolic activation)	induction of micronuclei (TK6 cells; 27 hours in the absence of exogenous metabolic activation)	IC50 [2] [µM]	IC50 [3] [µM]	TE ex vivo Mouse brain (%) at 15 min (USP30; 15 min) [%]	TE ex vivo Mouse brain (%) at 60 min (USP30; 60 min) [%]	inhibition at 10 µM (5-HT2b) [%]
COC[C@@H]1C[C@@H](NC(=O)c2ncc(-c3cccc(OC(F)(F)F)c3)o2)CN1C#N [Example 1, N-((3R,5S)-1-Cyano-5-(methoxymethyl)pyrrolidin-3-yl)-5-(3-(trifluoromethoxy)phenyl)oxazole-2-carboxamide]	less than 20%	negative	negative	≥ 4.4				
C[C@@H]1C[C@@H](NC(=O)c2ncc(-c3cccc(OC(F)(F)F)c3)o2)CN1C#N [Example 2, N-((3R,5R)-1-Cyano-5-methylpyrrolidin-3-yl)-5-(3-(trifluoromethoxy)phenyl)oxazole-2-carboxamide]	less than 20%				≥ 4.7	68	25	32
